What all share (experiment): inhibition of tumour cell growth, NCI panel, 48 h
Experiment [1] has as its system UACC-62 melanoma.
For experiment [2], the system named is MOLT-4 leukemia.
The test system of experiment [3] is SF-539 CNS.
In experiment [4] the test system is A498 renal.
In experiment [5] the test system is EKVX NSCLC.
For experiment [6], the system named is MALME-3M melanoma.
Experiment [7] relates to TK-10 renal.
Experiment [8] relates to NCI-H23 lung.
Experiment [9] relates to UACC-257 melanoma.
The test system of experiment [10] is SK-MEL-5 melanoma.

Experimental findings from PubChem BioAssay (NCI) are described below.

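All cell lines were grown in 96-well plates and treated with compound for 48 hours. The concentration for 50% growth inhibition is given as GI50. TGI: concentration producing complete growth inhibition.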

On to `C/C(=N\NC(=S)N1CCN(c2ccccn2)CC1)c1cccc2cccnc12`, for which the TGI in [1] is 27.8 µM; in experiment [2] it was greater than 62.2 µM; in [3], greater than 31.6 µM; in experiment [4], 71.1 µM; in experiment [5] it was greater than 45.3 µM; in experiment [6], greater than 100 µM. Also, the TGI in experiment [7] was greater than 100 µM; in experiment [8], greater than 100 µM; in experiment [9], greater than 100 µM; in experiment [10] it was greater than 43.2 µM.

Take `Cc1cn2c(/C=C3\C(=O)N(C)c4ccc(Cl)cc43)c(C)nc2s1`: the GI50 in experiment [1] was 3.7 µM; in experiment [2] it was 3.1 µM; in [3], 2.46 µM; in [4], 10.8 µM; in [5], 9.9 µM; in [6], 69.6 µM. Besides, the GI50 was 9.65 µM in experiment [7], 3.71 µM in experiment [8], 3.37 µM in experiment [9] and 1.34 µM in experiment [10]. Besides, the TGI was greater than 100 µM in experiment [1]; 15.9 µM in experiment [2]; 6.93 µM in experiment [3]; greater than 100 µM in experiment [4]; greater than 100 µM in experiment [5]; greater than 100 µM in experiment [6]. The TGI in experiment [7] is 73 µM; in experiment [8], 27.3 µM; in experiment [9], 38.6 µM; in experiment [10], 19.5 µM.

In the case of `Oc1ccc(/C=N/NC(=S)Nc2cccnc2)nc1`, the TGI in [1] is 29.3 µM; in experiment [2] it was 15 µM; in [3] it was 19.6 µM; in experiment [4], greater than 81.2 µM; in [5] it was greater than 100 µM; in experiment [6], 9.12 µM. The TGI in experiment [7] was greater than 25.7 µM; in [8] it was 61.9 µM; in experiment [9], 76.9 µM; in experiment [10], greater than 100 µM.

For `CC(C)(C)OC(=O)N1Cc2cc3ccccc3nc2C1CO` (stereo not given), the GI50 in experiment [1], in [2], in experiment [3], in [4], in [5] and in experiment [6] was greater than 100 µM each time. The GI50 in experiment [7], in experiment [8], in experiment [9] and in experiment [10] was greater than 100 µM throughout. Also, the TGI in experiment [1], in [2], in [3], in [4], in experiment [5] and in experiment [6] was greater than 100 µM in each case. The TGI in [7], in experiment [8], in experiment [9] and in experiment [10] was greater than 100 µM in each case.

Turning to `Cc1cn(C2CC(O)C(COC(N)=O)O2)c(=O)[nH]c1=O` (stereo not given), the TGI in experiment [1], in experiment [2], in experiment [3], in experiment [4], in experiment [5] and in experiment [6] was greater than 100 µM each time. Besides, the TGI in [7], in experiment [8], in experiment [9] and in experiment [10] was greater than 100 µM in each case.

For the molecule `O=C1c2ccccc2C(=O)c2sc(Nc3ccc([N+](=O)[O-])cc3)nc21`, the TGI is 8.31 µM in [1]; 7.17 µM in experiment [2]; 15.3 µM in experiment [3]; 34.8 µM in experiment [4]; 23.2 µM in experiment [5]; 12.6 µM in [6]. Moreover, the TGI stood at 26.4 µM in experiment [7], 9.77 µM in [8], 11.7 µM in experiment [9] and 6.38 µM in experiment [10].

Consider `Nc1no[n+]([O-])c1-c1nnc2c(n1)-c1ccccc1C2=O`, for which the GI50 was 4.47 µM in experiment [1]; 2.38 µM in experiment [2]; 1.8 µM in experiment [3]; 22.2 µM in [4]; 2.29 µM in experiment [5]; 1.74 µM in experiment [6]. For the same molecule, the GI50 in [7] was 13.9 µM; in experiment [8], 1.88 µM; in experiment [9] it was 1.93 µM; in experiment [10], 1.66 µM. The TGI in [1] stood at 15.7 µM; in experiment [2], 6.21 µM; in experiment [3] it was 3.67 µM; in experiment [4] it was 63.2 µM; in experiment [5] it was 5.86 µM; in experiment [6], 3.45 µM. Moreover, the TGI in [7] stood at 27.6 µM; in experiment [8], 4.35 µM; in experiment [9] it was 3.98 µM; in [10] it was 3.13 µM.
